17 molecules from patent publication US5441883A, “A3 adenosine receptor, DNA, and uses” (priority 1993, dated 1995) can be followed below.

Like-named read-outs stand apart in the source and are kept apart here. Bounds are passed on as bounds.

A word on the inhibition: it is how much of the control response was suppressed. As a reminder, the IC50 is the midpoint of a concentration-inhibition curve. Low values mean greater potency in that assay, high ones weaker potency in that assay. By EC50 is commonly meant the midpoint of the concentration-response curve. A lower EC50 goes with an effect from little substance.

Assay [1] deals with T1, A3 adenosine receptor (Rattus norvegicus, UniProt P28647).
T1 sequence (P28647 1-320): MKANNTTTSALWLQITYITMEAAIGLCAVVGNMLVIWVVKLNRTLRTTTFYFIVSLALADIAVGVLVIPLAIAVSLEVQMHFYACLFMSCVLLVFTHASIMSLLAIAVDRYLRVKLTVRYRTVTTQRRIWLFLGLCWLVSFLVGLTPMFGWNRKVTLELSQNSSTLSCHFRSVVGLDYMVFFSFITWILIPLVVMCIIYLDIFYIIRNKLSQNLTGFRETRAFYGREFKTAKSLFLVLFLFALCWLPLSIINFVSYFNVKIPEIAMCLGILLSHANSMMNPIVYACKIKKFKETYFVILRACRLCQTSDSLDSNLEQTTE
The assay is described as follows: cell-based. Format: cell-based. The note with it: for inhibitory effect of R-PIA and NECA on forskolin-stimulated cAMP production after pertussis toxin pretreatment: 100 ng/ml pertussis toxin, 18 hours; for effect on forskolin-stimulated cAMP: 100 μM ATP or ADP. The protocol:
The concentrations of adenosine agonists used are 100 nM and the concentration of forskolin is 1 μM. Values are obtained from triplicate plates and shown as mean ±S.E.
The cell were not or pretreated with 100 ng/ml pertussis toxin for 18 hours. The concentration of forskolin and adenosine agonists used are as in FIG. 5.
It is known that the A 1 adenosine receptor inhibits adenylate cyclase activity and the A2 adenosine receptor stimulates adenylate cyclase respectively (Stiles, ibid.; Williams, ibid.).
Cells were grown to about 80% confluence in 150 mm dishes, washed twice with Ca^++ and Mg^++ -free PBS buffer and detached from plates with PBS buffer containing 0.02% EDTA. Cells were collected by centrifugation at 800 rpm (xx g) for 10 min at 4° C. and resuspended in an appropriate volume of KRH buffer [140 mM NaCl, 5 mM KCl , 2 mM CaCl2, 1.2 mM MgSO4, 1.2 mM KH2 PO4, 6 mM glucose, 25 mM Hepes-NaOH (pH 7.4)]. The cells were washed once with KRH buffer and resuspended in KRH buffer at a concentration of 10^7 cells/ml. Each of 100 μl aliquots of this cell suspension were added to a glass tube containing 100 μl KRH+200 μM Ro 20-1724 and incubated at 37° C. for 10 min. Prewarmed 200 μl KRH containing 200 μm Ro 20-1724 and test drugs were then added to the cells and mixed. After incubation at 37° C. for 20 min, 400 μl 10.5 mM NaAc (pH 6.2) were added and the glass tubes transferred to a boiling water bath. The incubated cell suspension were boiled for 20 min, and the tubes were then cooled to room temperature and centrifuged at 3000 rpm (xx g) for 15 min.
For experiments using pertussis toxin pretreatment, aseptic pertussis toxin (Sigma Chemical Co., St. Louis, Mo.) was dissolved in sterile water and added to the medium to a final concentration of 100 ng/ml. Toxin treatment was maintained for approximately 18 hours. The dishes were rinsed once with media immediately prior to the addition of adenosine receptor ligands and processed as described above.
Background: Changes in cAMP serve as a functional read-out for many G protein-coupled receptors.

Assay [2] concerns the target T1, A3 adenosine receptor. The assay is described as follows: biochemical. Format: binding. As to conditions: for inhibition at 1000 µM: read-out: inhibition of [125I]APNEA binding; for pharmacological profile of inhibition of [125I]APNEA binding: rank order; for inhibition at 100 µM: read-out: inhibition of specific [125I]APNEA binding; for IC50: 0.5 nM [125I]APNEA. The protocol: FIGS. 4A and 4B illustrates competitive binding assays using stably transfected CHO cell membrane preparations.
Cell membranes were prepared as follows. COS-7 cells (transient expressors) were harvested 48 hrs after transfection, whereas CHO cells (stable expressors) were grown to confluence in 150 mm plates. Cells were washed twice with ice-cold HOB buffer [15 mM Tris-HCl (pH 7.4), 5 mM MgCl2, 1 mM EDTA] and scraped off plates with a rubber policeman. Cells were then collected by centrifugation at 1,200 rpm (xx g), resuspended in HOB buffer, transferred to a Dounce homogenizer on ice, and homogenized for 20 sec with a CorTarge homogenizer (Eberbach Inc., Ann Arbor, Mich.) at the #3 speed setting. The homogenate was then centrifuged at 2,000 rpm (xx g) for 10 min at 4° C. The supernatant was saved and the pellet resuspended in HOB buffer and subjected to a second round of homogenation. The second homogenate was centrifuged at 2000 rpm (xx g) for 10 min and the pellet was discarded. Supernatants were pooled and centrifuged at 34,000 rpm (xx g) for 45 min. These crude membrane pellets were resuspended in TEM buffer [50 mM Tris-HCl (pH 7.4), 5 mM MgCl2, 1 mM EDTA]. Adenosine deaminase (Sigma, St Louis, Mo.) was added to the membrane suspensions to a concentration of 2 Units/ml and incubated at 37° C. for 30 min. The membrane suspension was subsequently recentrifuged at 34,000 rpm (xx g) for 45 min. The resulting pellet was resuspended in TEM buffer at a protein concentration of about 1 mg/ml and stored in small aliquots at -70° C. The protein concentration was measured according to the method of Lowry et al. (1954, J. Biol. Chem. 207: 1-XXX) using bovine serum albumin as a standard.
Radioligand binding assays were carried out in duplicate in 500 μl of a solution containing (at final concentrations) 50 mM Tris-HCl (pH 7.4), 5 mM MgCl2, 1 mM EDTA, 0.025 % ascorbic acid, radioligands, and appropriate drugs. […] ([aH]XAC), [^3 H]-labeled 2-[4-(2-[(4-aminophenyl)methylcarbobylamino]ethylaminocarbonyl)ethyl)phenyl]ethylamino-5'-N-ethylcarboxamidoadenosine ([^3 H]PAPA-APEC), and [^3 H]-labeled [2-(4-(2-carboxyethyl)phenylethyamino)5'-N-ethylcarboxamidoadenosine ([^3 H]CGS21680). Receptor binding was initiated by the addition of membrane preparations in an amount equivalent to 20-100 μg protein, and carried out at 37° C. for 1 hr. Nonspecific binding was determined in the presence of 10 μM R-N^6 -phenyl-2-propyladenosine (R-PIA). After incubation, samples were filtered through glass fiber filters (Schleicher and Schuell #32) and washed three times with 4 ml ice-cold 10 mM TrisoHCl (pH 7.4). Radioactivity retained on the filters were counted using a Beckman LS6800 scintillation counter (Beckman Instruments, Palo Alto, Calif.). […] A LIGAND computer program was used for data analysis and curve fitting (Munson & Rodband, 1980, Anal. Biochem. 107: 220-225).
The A3 receptor was then characterized using competition assays between [^125 I]APNEA A3 receptor binding versus a series of other adenosine receptor ligands. Labeled APNEA was present in these assays at 0.5 nM; unlabled competitors were present at varying concentrations as shown in FIG. 4A.

On to pertussis toxin, for which the “inhibitory effect of R-PIA and NECA on forskolin-stimulated cAMP production after pertussis toxin pretreatment” value in assay [1] is listed as “almost completely abolished”.
Regarding `Nc1ncnc2c1ncn2[C@@H]1O[C@H](COP(=O)(O)OP(=O)(O)CP(=O)(O)O)[C@@H](O)[C@H]1O` [AMP-PCP], the inhibition at 1000 µM in assay [2] is under 20%.
With `Nc1ncnc2c1ncn2[C@@H]1O[C@H](COP(=O)(O)OP(=O)(O)OP(=O)(O)O)[C@@H](O)[C@H]1O` [ATP], the “effect on forskolin-stimulated cAMP” value in assay [1] is on record as “had no effect”. In assay [2], the “pharmacological profile of inhibition of [125I]APNEA binding” value is “R-PIA=NECA>S-PIA>adenosine>ATP=ADP” and the inhibition at 100 µM is 50%.
In turn, `C[C@@H](Cc1ccccc1)Nc1ncnc2c1ncn2[C@@H]1O[C@H](CO)[C@@H](O)[C@H]1O` [S-PIA] yielded an IC50 in assay [2] (Table I) of 1.14 ± 0.49 µM. Moreover, the “pharmacological profile of inhibition of [125I]APNEA binding” value in assay [2] was “R-PIA=NECA>S-PIA>adenosine>ATP=ADP”.
Consider `NCCc1c[nH]c2ccc(O)cc12` [serotonin], for which, in assay [2] (100 μM), the “ability to compete with [125I]APNEA for A3 receptor binding” value (“ability to compete with [125I]APNEA” for short) is given as “failed to compete with labeled APNEA”.
Same read-out and setting: the value for `C[N+](C)(C)CCOC(N)=O` [carbacol] was “failed to compete with labeled APNEA”.
As for `CSc1nc(N)c2ncn([C@@H]3O[C@H](COP(=O)(O)O)[C@@H](O)[C@H]3O)c2n1` [2-methyl-S-AMP], the “inhibition of [125I]APNEA binding” value in assay [2] (1 mM) is on record as under 20%.
`C[C@H](Cc1ccccc1)Nc1ncnc2c1ncn2[C@@H]1O[C@H](CO)[C@@H](O)[C@H]1O` [R-PIA]: the “inhibitory effect of R-PIA and NECA on forskolin-stimulated cAMP production after pertussis toxin pretreatment” value in assay [1] is “almost completely abolished”. The “inhibition of forskolin-stimulated cAMP accumulation” value in assay [1] (1 μM forskolin, 100 nM agonist) is listed as 20-50%. In assay [1] (Table II), this molecule gave an EC50 of 0.018 ± 0.0056 µM. Further, the IC50 in assay [2] (Table I) was 0.063 ± 0.019 µM. Moreover, the “pharmacological profile of inhibition of [125I]APNEA binding” value in assay [2] is recorded as “R-PIA=NECA>S-PIA>adenosine>ATP=ADP”.
For `NCCc1ccc(O)c(O)c1` [dopamine], the “ability to compete with [125I]APNEA” value in assay [2] (100 μM) is reported as “failed to compete with labeled APNEA”.
For `Nc1nc2c(ncn2[C@@H]2O[C@H](COP(=O)(O)OP(=O)(O)NP(=O)(O)O)[C@@H](O)[C@H]2O)c(=O)[nH]1` [Gpp(NH)p], in assay [2] (Gpp(NH)p, varying concentrations), the “competition for labeled APNEA binding” value is on record as 60-70%. Further, the IC50 in assay [2] (Table I and text) came out at 1 µM.
Turning to `Cc1ccc(N(CC2=NCCN2)c2cccc(O)c2)cc1` [phentoamine], the “ability to compete with [125I]APNEA” value in assay [2] (100 μM) is “failed to compete with labeled APNEA”.
Consider `CC(C)Cn1c(=O)n(C)c(=O)c2[nH]cnc21` [IBMX], for which the “ability to compete with [125I]APNEA” value in assay [2] (100 μM) is “none of the methylxanthines tested were capable of competing with labeled APNEA”.
Turning to `O=c1ccn([C@@H]2O[C@H](COP(=O)(O)OP(=O)(O)OP(=O)(O)O)[C@@H](O)[C@H]2O)c(=O)[nH]1` [UTP], in assay [2] (1 mM), the inhibition at 1000 µM is under 20%.
`Nc1ncnc2c1ncn2[C@@H]1O[C@H](COP(=O)(O)OP(=O)(O)O)[C@@H](O)[C@H]1O` [ADP]: in assay [1], the “effect on forskolin-stimulated cAMP” value is reported as “had no effect”. Besides, the inhibition at 100 µM in assay [2] (100 μM) was found to be 25%. Besides, the “pharmacological profile of inhibition of [125I]APNEA binding” value in assay [2] is on record as “R-PIA=NECA>S-PIA>adenosine>ATP=ADP”.
On to `Nc1ncnc2c1ncn2[C@H]1C[C@H](O)[C@@H](CO)O1` [2-deoxyadenosine], for which, in assay [2] (1 mM), the inhibition at 1000 µM is under 20%.
For `CC(C)NCC(O)c1ccc(O)c(O)c1` (stereo not drawn) [isoproterenol], the “ability to compete with [125I]APNEA” value in assay [2] (100 μM) is listed as “failed to compete with labeled APNEA”.
Take `Nc1ncnc2c1ncn2[C@@H]1O[C@H](COP(=O)(O)OP(=O)(O)NP(=O)(O)O)[C@@H](O)[C@H]1O` [App(NH)p]: the inhibition at 1000 µM in assay [2] (1 mM) is under 20%.
